Positions of bridges follow the written chain, without caps; N, C: chain ends. Non-standard residues stand in square brackets, D forms with d. Residues, ends and D or L forms follow the SMILES beside them. Phe(4-NO2) = N[C@@H](Cc1ccc([N+](=O)[O-])cc1)C(=O)O; Tyr(3-I) = N[C@@H](Cc1ccc(O)c(I)c1)C(=O)O; dBip = N[C@H](Cc1ccc(-c2ccccc2)cc1)C(=O)O; Phe(4-Cl) = N[C@@H](Cc1ccc(Cl)cc1)C(=O)O; dPhe(4-Cl) = N[C@H](Cc1ccc(Cl)cc1)C(=O)O; Dip = N[C@H](C(=O)O)C(c1ccccc1)c1ccccc1; Phe(3-F) = N[C@@H](Cc1cccc(F)c1)C(=O)O; Phe(4-F) = N[C@@H](Cc1ccc(F)cc1)C(=O)O; dPhe(4-F) = N[C@H](Cc1ccc(F)cc1)C(=O)O; 2Nal = N[C@@H](Cc1ccc2ccccc2c1)C(=O)O; d2Nal = N[C@H](Cc1ccc2ccccc2c1)C(=O)O; 3Pal = N[C@@H](Cc1cccnc1)C(=O)O; Tle = CC(C)(C)[C@H](N)C(=O)O; Nle = CCCC[C@H](N)C(=O)O
These compounds were tested on rat pituitary cells. Details: 3 h.
Format: cell-based
In short: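 Dispersed adult male rat pituitary cells, cultured 4-5 days, were exposed 3 h at 37° C in medium 199 with 1% BSA to 6 antagonist doses plus 1 nM SRIF and 1 nM GRF(1-29)NH2, in triplicate. GH in medium measured by radioimmunoassay; IC50 versus 1 nM SRIF fitted, maximum constrained to GRF-stimulated control.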
`CCCC[C@@H]1NC(=O)[C@H](CCCCN)NC(=O)[C@@H](Cc2c[nH]c3ccccc23)NC(=O)[C@H](Cc2cccnc2)NC(=O)[C@H](NC(=O)[C@@H](N)Cc2ccc3ccccc3c2)CSSC[C@@H](C(=O)N[C@@H](Cc2ccc3ccccc3c2)C(N)=O)NC1=O` [Analog No. 31, H2-β-Nal-D-Cys-Pal-D-Trp-Lys-Nle-Cys-β-Nal-NH2] (H-[2Nal][dC][3Pal][dW]K[Nle]C[2Nal]-NH2; disulfide 2-7) was tested, and the IC50 was 3.8 nM.
In the case of `CC(C)[C@@H]1NC(=O)[C@H](CCCCN)NC(=O)[C@@H](Cc2c[nH]c3ccccc23)NC(=O)[C@H](Cc2cccnc2)NC(=O)[C@H](NC(=O)[C@@H](N)Cc2cccc(F)c2)CSSC[C@@H](C(=O)N[C@@H](Cc2cccc(F)c2)C(N)=O)NC1=O` [Analog No. 14, H2-m-F-Phe-D-Cys-Pal-D-Trp-Lys-Val-Cys-m-F-Phe-NH2] (H-[Phe(3-F)][dC][3Pal][dW]KVC[Phe(3-F)]-NH2; disulfide 2-7), the IC50 is reported as 110 nM.
Work on `CC(C)(C)[C@@H]1NC(=O)[C@H](CCCCN)NC(=O)[C@@H](Cc2c[nH]c3ccccc23)NC(=O)[C@H](Cc2cccnc2)NC(=O)[C@H](NC(=O)[C@@H](N)Cc2c[nH]c3ccccc23)CSSC[C@@H](C(=O)N[C@@H](Cc2ccc3ccccc3c2)C(N)=O)NC1=O` [Analog No. 54, H2-Trp-D-Cys-Pal-D-Trp-Lys-Tle-Cys-β-Nal-NH2] (H-W[dC][3Pal][dW]K[Tle]C[2Nal]-NH2; disulfide 2-7) yielded an IC50 of 29 nM.
`CC(C)[C@H](NC(=O)[C@H](CCCCN)NC(=O)[C@@H](Cc1c[nH]c2ccccc12)NC(=O)[C@H](Cc1ccc(O)cc1)NC(=O)[C@@H](Cc1ccc(Cl)cc1)NC(=O)[C@@H](N)Cc1ccc2ccccc2c1)C(=O)N[C@@H](Cc1ccccc1)C(=O)N[C@H](C(N)=O)[C@@H](C)O` [Analog No. 1, H2-β-Nal-D-Cpa-Tyr-D-Trp-Lys-Val-Phe-Thr-NH2] (H-[2Nal][dPhe(4-Cl)]Y[dW]KVFT-NH2) was tested, and the IC50 was 3030 nM.
With `CC(C)(C)[C@@H]1NC(=O)[C@H](CCCCN)NC(=O)[C@@H](Cc2c[nH]c3ccccc23)NC(=O)[C@H](Cc2cccnc2)NC(=O)[C@H](NC(=O)[C@@H](N)Cc2ccc(Cl)cc2)CSSC[C@@H](C(=O)N[C@@H](Cc2ccc(Cl)cc2)C(N)=O)NC1=O` [Analog No. 57, H2-p-Cl-Phe-D-Cys-Pal-D-Trp-Lys-Tle-Cys-p-Cl-Phe-NH2] (H-[Phe(4-Cl)][dC][3Pal][dW]K[Tle]C[Phe(4-Cl)]-NH2; disulfide 2-7) the IC50 was 5.9 nM.
For `CC(C)[C@@H]1NC(=O)[C@H](CCCCN)NC(=O)[C@@H](Cc2c[nH]c3ccccc23)NC(=O)[C@H](Cc2cccnc2)NC(=O)[C@H](NC(=O)[C@@H](N)Cc2ccc3ccccc3c2)CSSC[C@@H](C(=O)N[C@H](C(N)=O)C(c2ccccc2)c2ccccc2)NC1=O` [Analog No. 42, H2-β-Nal-D-Cys-Pal-D-Trp-Lys-Val-Cys-Dip-NH2] (H-[2Nal][dC][3Pal][dW]KVC[Dip]-NH2; disulfide 2-7), the IC50 was 44 nM.
With `CC(C)[C@@H]1NC(=O)[C@H](CCCCN)NC(=O)[C@@H](Cc2c[nH]c3ccccc23)NC(=O)[C@H](Cc2cccnc2)NC(=O)[C@H](NC(=O)[C@@H](N)Cc2ccc(F)cc2)CSSC[C@@H](C(=O)N[C@@H](Cc2ccc3ccccc3c2)C(N)=O)NC1=O` [Analog No. 30, H2-p-F-Phe-D-Cys-Pal-D-Trp-Lys-Val-Cys-β-Nal-NH2] (H-[Phe(4-F)][dC][3Pal][dW]KVC[2Nal]-NH2; disulfide 2-7) the IC50 was 6.5 nM.
With `CC(C)[C@@H]1NC(=O)[C@H](CCCCN)NC(=O)[C@@H](Cc2c[nH]c3ccccc23)NC(=O)[C@H](Cc2c[nH]cn2)NC(=O)[C@H](NC(=O)[C@@H](N)Cc2ccc(F)cc2)CSSC[C@@H](C(=O)N[C@@H](Cc2ccc(F)cc2)C(N)=O)NC1=O` [Analog No. 38, H2-p-F-Phe-D-Cys-His-D-Trp-Lys-Val-Cys-p-F-Phe-NH2] (H-[Phe(4-F)][dC]H[dW]KVC[Phe(4-F)]-NH2; disulfide 2-7) the IC50 was 110 nM.
`CC(C)[C@@H]1NC(=O)[C@H](CCCCN)NC(=O)[C@@H](Cc2c[nH]c3ccccc23)NC(=O)[C@H](Cc2cccnc2)NC(=O)[C@H](NC(=O)[C@@H](N)Cc2ccc3ccccc3c2)CSSC[C@@H](C(=O)N[C@@H](Cc2ccc3ccccc3c2)C(N)=O)NC1=O` [Analog No. 3, H2-β-Nal-D-Cys-Pal-D-Trp-Lys-Val-Cys-β-Nal-NH2] (H-[2Nal][dC][3Pal][dW]KVC[2Nal]-NH2; disulfide 2-7) showed an IC50 of 10 nM.
For `CC(C)[C@@H]1NC(=O)[C@H](CCCCN)NC(=O)[C@@H](Cc2c[nH]c3ccccc23)NC(=O)[C@H](Cc2ccc(O)cc2)NC(=O)[C@H](NC(=O)[C@H](N)Cc2ccc(-c3ccccc3)cc2)CSSC[C@@H](C(=O)N[C@@H](Cc2ccc3ccccc3c2)C(N)=O)NC1=O` [Analog No. 37, H2-D-Bip-D-Cys-Tyr-D-Trp-Lys-Val-Cys-β-Nal-NH2] (H-[dBip][dC]Y[dW]KVC[2Nal]-NH2; disulfide 2-7), the IC50 was 780 nM.
In the case of `CC(C)[C@H](NC(=O)[C@H](CCCCN)NC(=O)[C@@H](Cc1c[nH]c2ccccc12)NC(=O)[C@H](Cc1ccc(O)cc1)NC(=O)[C@@H](Cc1ccc(Cl)cc1)NC(=O)[C@@H](N)Cc1ccc2ccccc2c1)C(=O)N[C@@H](Cc1ccccc1)C(=O)N[C@@H](Cc1ccc2ccccc2c1)C(N)=O` [Analog No. 23, H2-β-Nal-D-Cpa-Tyr-D-Trp-Lys-Val-Phe-β-Nal-NH2] (H-[2Nal][dPhe(4-Cl)]Y[dW]KVF[2Nal]-NH2), the IC50 is reported as 910 nM.
`CC(C)[C@@H]1NC(=O)[C@H](CCCCN)NC(=O)[C@@H](Cc2c[nH]c3ccccc23)NC(=O)[C@H](Cc2cccnc2)NC(=O)[C@H](NC(=O)[C@H](N)Cc2ccc(F)cc2)CSSC[C@@H](C(=O)N[C@H](Cc2ccc(F)cc2)C(N)=O)NC1=O` [Analog No. 27, H2-D-p-F-Phe-D-Cys-Pal-D-Trp-Lys-Val-Cys-D-p-F-Phe-NH2] (H-[dPhe(4-F)][dC][3Pal][dW]KVC[dPhe(4-F)]-NH2; disulfide 2-7) was tested, and the IC50 was 41 nM.
`CC(C)[C@@H]1NC(=O)[C@H](CCCCN)NC(=O)[C@@H](Cc2c[nH]c3ccccc23)NC(=O)[C@H](Cc2cccnc2)NC(=O)[C@H](NC(=O)[C@@H](N)C(c2ccccc2)c2ccccc2)CSSC[C@@H](C(=O)N[C@H](C(N)=O)C(c2ccccc2)c2ccccc2)NC1=O` [Analog No. 10, H2-Dip-D-Cys-Pal-D-Trp-Lys-Val-Cys-Dip-NH2] (H-[Dip][dC][3Pal][dW]KVC[Dip]-NH2; disulfide 2-7) showed an IC50 of 620 nM.
For `CC(C)[C@@H]1NC(=O)[C@H](CCCCN)NC(=O)[C@@H](Cc2c[nH]c3ccccc23)NC(=O)[C@H](Cc2ccc(O)c(I)c2)NC(=O)[C@H](NC(=O)[C@@H](N)Cc2ccc3ccccc3c2)CSSC[C@@H](C(=O)N[C@@H](Cc2ccc3ccccc3c2)C(N)=O)NC1=O` [Analog No. 46, H2-β-Nal-D-Cys-3-I-Tyr-D-Trp-Lys-Val-Cys-β-Nal-NH2] (H-[2Nal][dC][Tyr(3-I)][dW]KVC[2Nal]-NH2; disulfide 2-7), the IC50 was 20 nM.
Compound `CC(C)[C@@H]1NC(=O)[C@H](CCCCN)NC(=O)[C@@H](Cc2c[nH]c3ccccc23)NC(=O)[C@H](Cc2cccnc2)NC(=O)[C@H](NC(=O)[C@@H](N)Cc2ccc([N+](=O)[O-])cc2)CSSC[C@@H](C(=O)N[C@@H](Cc2ccc(O)cc2)C(N)=O)NC1=O` [Analog No. 39, H2-Npa-D-Cys-Pal-D-Trp-Lys-Val-Cys-Tyr-NH2] (H-[Phe(4-NO2)][dC][3Pal][dW]KVCY-NH2; disulfide 2-7) has an IC50 of 34 nM.
Compound `CC[C@H](C)[C@@H]1NC(=O)[C@H](CCCCN)NC(=O)[C@@H](Cc2c[nH]c3ccccc23)NC(=O)[C@H](Cc2cccnc2)NC(=O)[C@H](NC(=O)[C@@H](N)Cc2ccc3ccccc3c2)CSSC[C@@H](C(=O)N[C@@H](Cc2ccc3ccccc3c2)C(N)=O)NC1=O` [Analog No. 32, H2-β-Nal-D-Cys-Pal-D-Trp-Lys-Ile-Cys-β-Nal-NH4] (H-[2Nal][dC][3Pal][dW]KIC[2Nal]-NH2; disulfide 2-7) has an IC50 of 12 nM.

Same assay, conditions: cultured rat pituitary cells; 1 nM SRIF and 1 nM GRF(1-29)NH2; 3 hrs at 37° C.; growth hormone by radioimmunoassay; read-out: IC50 of antagonist versus 1 nM SRIF (growth hormone release)
`CC(C)[C@@H]1NC(=O)[C@H](CCCCN)NC(=O)[C@@H](Cc2c[nH]c3ccccc23)NC(=O)[C@H](Cc2ccc(O)cc2)NC(=O)[C@H](NC(=O)[C@@H](N)Cc2ccc3ccccc3c2)CSSC[C@@H](C(=O)N[C@@H](Cc2ccc3ccccc3c2)C(N)=O)NC1=O` [Analog No. 2, H2-β-Nal-D-Cys-Tyr-D-Trp-Lys-Val-Cys-β-Nal-NH2] (H-[2Nal][dC]Y[dW]KVC[2Nal]-NH2; disulfide 2-7) gave an IC50 of 40 nM.
Compound `CC(C)[C@@H]1NC(=O)[C@H](CCCCN)NC(=O)[C@@H](Cc2c[nH]c3ccccc23)NC(=O)[C@H](Cc2ccc(O)cc2)NC(=O)[C@H](NC(=O)[C@@H](N)Cc2c[nH]c3ccccc23)CSSC[C@@H](C(=O)N[C@H](Cc2ccc3ccccc3c2)C(N)=O)NC1=O` [Analog No. 24, H2-Trp-D-Cys-Tyr-D-Trp-Lys-Val-Cys-D-β-Nal-NH2] (H-W[dC]Y[dW]KVC[d2Nal]-NH2; disulfide 2-7) has an IC50 of 68 nM.

From US9133262B2, “Somatostatin antagonists” (Ipsen Pharma S.A.S., priority 1996, dated 2015)
